We go through 21 compounds from patent US8541397B2, “Alkyne and alkene derivatives as sphingosine 1-phosphate-1 receptor modulators” (Allergan, Inc., priority 2010, dated 2013).

For orientation: EC50 means the concentration at which the effect is half-maximal. Low readings indicate a more potent agent, high ones a less potent agent.

For this experiment, the target named is T1, human S1P1 receptor (Homo sapiens, UniProt P21453).
T1 construct: expressed in transfected cells; membranes used
T1 sequence (P21453 whole entry): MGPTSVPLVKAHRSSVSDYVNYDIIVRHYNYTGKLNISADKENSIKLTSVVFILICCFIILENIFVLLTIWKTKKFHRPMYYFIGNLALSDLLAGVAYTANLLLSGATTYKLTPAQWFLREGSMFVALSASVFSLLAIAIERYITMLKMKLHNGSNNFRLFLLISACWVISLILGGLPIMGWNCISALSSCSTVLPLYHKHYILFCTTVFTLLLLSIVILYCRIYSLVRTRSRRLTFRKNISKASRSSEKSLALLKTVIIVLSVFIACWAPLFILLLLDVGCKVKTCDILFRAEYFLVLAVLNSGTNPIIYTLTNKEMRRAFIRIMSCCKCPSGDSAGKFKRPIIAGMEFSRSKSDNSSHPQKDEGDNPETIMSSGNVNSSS
Kind of experiment: GTP γ35S binding assay for S1P1 activity. It counts as biochemical. Conditions: activity potency, S1P1 receptor from GTP γ35S binding; membranes; test compounds 0.08 to 5,000 nM. On the procedure:
Compounds were synthesized and tested for S1P1 activity using the GTP γ^35S binding assay. These compounds may be assessed for their ability to activate or block activation of the human S1P1 receptor in cells stably expressing the S1P1 receptor.
GTP γ^35S binding was measured in the medium containing (mM) HEPES 25, pH 7.4, MgCl2 10, NaCl 100, dithitothreitol 0.5, digitonin 0.003%, 0.2 nM GTP γ^35S, and 5 μg membrane protein in a volume of 150 μl. Test compounds were included in the concentration range from 0.08 to 5,000 nM unless indicated otherwise. Membranes were incubated with 100 μM 5′-adenylylimmidodiphosphate for 30 min, and subsequently with 10 μM GDP for 10 min on ice. Drug solutions and membrane were mixed, and then reactions were initiated by adding GTP γ^35S and continued for 30 min at 25° C. Reaction mixtures were filtered over Whatman GF/B filters under vacuum, and washed three times with 3 mL of ice-cold buffer (HEPES 25, pH7.4, MgCl2 10 and NaCl 100). Filters were dried and mixed with scintillant, and counted for ^35S activity using a β-counter. Agonist-induced GTP γ^35S binding was obtained by subtracting that in the absence of agonist. Binding data were analyzed using a non-linear regression method. In case of antagonist assay, the reaction mixture contained 10 nM S1P in the presence of test antagonist at concentrations ranging from 0.08 to 5000 nM.
Turning to `Cc1cccc(C(C#Cc2ccc(CNCCCP(=O)(O)O)cc2C)Cc2ccc(C)c(C)c2)c1` (stereo not drawn) [Compound 11, [3-({4-[4-(3,4-dimethylphenyl)-3-(3-methylphenyl)but-1-yn-1-yl]-3 methylbenzyl}amino)propyl]phosphonic acid], a half-maximal response (EC50) required 56 nM.
In the case of `Cc1ccc(CC(C#Cc2ccc(CNCCC(=O)O)cc2C)c2cccc(Cl)c2)cc1C` (stereo not drawn) [Compound 2, 3-{4-[3-(3-Chloro-phenyl)-4-(3,4-dimethyl-phenyl)-but-1-ynyl]-3-methyl-benzylamino}-propionic acid] it was 262 nM; in that of `Cc1ccc(CC(C#Cc2ccc(CNCCCP(=O)(O)O)cc2C)c2cccc(Cl)c2)cc1C` (stereo not drawn) [Compound 10, (3-{4-[3-(3-Chloro-phenyl)-4-(3,4-dimethyl-phenyl)-but-1-ynyl]-3-methyl-benzylamino}-propyl)-phosphonic acid], 17.7 nM; in that of `Cc1ccc(CC(C#Cc2ccc(CNCCC(=O)O)cc2)c2cccc(Cl)c2)cc1C` (stereo not drawn) [Compound 3, 3-({4-[3-(3-chlorophenyl)-4-(3,4-dimethylphenyl)but-1-yn-1-yl]benzyl}amino)propanoic acid], 66 nM.
The compound `Cc1cccc(C(C#Cc2ccc(CNCCCP(=O)(O)O)cc2)Cc2ccc(C)c(C)c2)c1` (stereo not drawn) [Compound 9, (3-{4-[4-(3,4-Dimethyl-phenyl)-3-m-tolyl-but-1-ynyl]-benzylamino}-propyl)-phosphonic acid] displayed an EC50 of 117 nM.
Compound `Cc1ccc(CC(/C=C/c2ccc(CNCCCP(=O)(O)O)cc2)c2cccc(F)c2)cc1C` (stereo not drawn) [Compound 23, [3-({4-[(1E)-4-(3,4-dimethylphenyl)-3-(3-fluorophenyl)but-1-en-1 yl]benzyl}amino)propyl]phosphonic acid] showed an EC50 of 172 nM.
Consider `Cc1ccc(CC(C#Cc2ccc(OCC(O)CO)c(Cl)c2)c2cccc(Cl)c2)cc1C` (stereo not drawn) [Compound 19, 3-{2-chloro-4-[3-(3-chlorophenyl)-4-(3,4-dimethylphenyl)but-1-yn-1-yl]phenoxy}propane-1,2-diol], for which the response was half-maximal at 238 nM (EC50).
For the compound `Cc1cccc(C(C#Cc2ccc(CNCCCP(=O)(O)O)cc2-c2ccco2)Cc2ccc(C)c(C)c2)c1` (stereo not drawn) [Compound 17, [3-({4-[4-(3,4-dimethylphenyl)-3-(3-methylphenyl)but-1-yn-1-yl]-3-(2-furyl)benzyl}amino)propyl]phosphonic acid], the midpoint of the response, the EC50, lay at 59 nM.
Regarding `COc1cccc(C(C#Cc2ccc(CNCCC(=O)O)cc2)Cc2ccc(C)c(C)c2)c1` (stereo not drawn) [Compound 1, 3-({4-[4-(3,4-dimethylphenyl)-3-(3-methoxyphenyl)but-1-yn-1-yl]benzyl}amino)propanoic acid], the EC50 came out at 247 nM.
The value for `Cc1ccc(CC(C#Cc2ccc(OCC(O)CO)c(Cl)c2)c2cccc(F)c2)cc1C` (stereo not drawn) [Compound 20, 3-{2-chloro-4-[4-(3,4-dimethylphenyl)-3-(3-fluorophenyl)but-1-yn-1-yl]phenoxy}propane-1,2-diol] was 600 nM; that for `Cc1ccc(CC(/C=C/c2ccc(CNCCC(=O)O)cc2)c2cccc(F)c2)cc1C` (stereo not drawn) [Compound 22, 3-({4-[(1E)-4-(3,4-dimethylphenyl)-3-(3-fluorophenyl)but-1-en-1-yl]benzyl}amino)propanoic acid] was 265 nM.
In the case of `Cc1ccc(CC(C#Cc2ccc(CNCCCP(=O)(O)O)cc2)c2cccc(Cl)c2)cc1C` (stereo not drawn) [Compound 8, (3-{4-[3-(3-Chloro-phenyl)-4-(3,4-dimethyl-phenyl)-but-1-ynyl]-benzylamino}-propyl)-phosphonic acid] it was 75.4 nM; in that of `Cc1ccc(CC(C#Cc2ccc(CNCCCP(=O)(O)O)cc2C)c2cccc(F)c2)cc1C` (stereo not drawn) [Compound 12, [3-({4-[4-(3,4-dimethylphenyl)-3-(3-fluorophenyl)but-1-yn-1-yl]-3-methylbenzyl}amino)propyl]phosphonic acid], 1890 nM.
For `Cc1ccc(CC(C#Cc2ccc(CNCCC(=O)O)cc2)c2ccc(Cl)cc2)cc1C` (stereo not drawn) [Compound 5, 3-({4-[3-(4-chlorophenyl)-4-(3,4-dimethylphenyl)but-1-yn-1-yl]benzyl}amino)propanoic acid], the EC50 came to 480 nM.
In the case of `Cc1ccc(CC(C#Cc2ccc(CNCCCP(=O)(O)O)cc2Br)c2cccc(F)c2)cc1C` (stereo not drawn) [Compound 13, [3-({3-bromo-4-[4-(3,4-dimethylphenyl)-3-(3-fluorophenyl)but-1-yn-1-yl]benzyl}amino)propyl]phosphonic acid] it was 6 nM.
The value for `Cc1cccc(C(C#Cc2ccc(OCC(O)CO)c(Cl)c2)Cc2ccc(C)c(C)c2)c1` (stereo not drawn) [Compound 21, 3-{2-chloro-4-[4-(3,4-dimethylphenyl)-3-(3-methylphenyl)but-1-yn-1-yl]phenoxy}propane-1,2-diol] was 401 nM; that for `Cc1cccc(C(C#Cc2ccc(CNCCC(=O)O)cc2)Cc2ccc(C)c(C)c2)c1` (stereo not drawn) [Compound 4, 3-({4-[4-(3,4-dimethylphenyl)-3-(3-methylphenyl)but-1-yn-1-yl]benzyl}amino)propanoic acid] was 502 nM; that for `Cc1ccc(CC(C#Cc2ccc(CNCCCP(=O)(O)O)cc2Br)c2cc(F)cc(F)c2)cc1C` (stereo not drawn) [Compound 16, [3-({3-bromo-4-[3-(3,5-difluorophenyl)-4-(3,4-dimethylphenyl)but-1-yn-1-yl]benzyl}amino)propyl]phosphonic acid] was 31 nM.
In the case of `Cc1cccc(C(C#Cc2ccc(CNCCCP(=O)(O)O)cc2-c2cccs2)Cc2ccc(C)c(C)c2)c1` (stereo not drawn) [Compound 15, [3-({4-[4-(3,4-dimethylphenyl)-3-(3-methylphenyl)but-1-yn-1-yl]-3-(2-thienyl)benzyl}amino)propyl]phosphonic acid] it was 179 nM; in that of `Cc1ccc(CC(C#Cc2ccc(CNCCCP(=O)(O)O)cc2-c2ccco2)c2cccc(F)c2)cc1C` (stereo not drawn) [Compound 14, [3-({4-[4-(3,4-dimethylphenyl)-3-(3-fluorophenyl)but-1-yn-1-yl]-3-(2-furyl)benzyl}amino)propyl]phosphonic acid], 239 nM.
In turn, `COc1cccc(C(C#Cc2ccc(CNCCCP(=O)(O)O)cc2)Cc2ccc(C)c(C)c2)c1` (stereo not drawn) [Compound 7, (3-{4-[4-(3,4-Dimethyl-phenyl)-3-(3-methoxy-phenyl)-but-1-ynyl]-benzylamino}-propyl)-phosphonic acid] yielded an EC50 of 160 nM.
